Measurements: patent US6280725A, “Compositions and methods for inhibiting the growth of fungi” (Lipton, division of Conopco, Inc., priority 2000, dated 2001)

Key:
Type in all cases: cell-based
[1] = system: Saccharomyces cerevisiae wild type strain SU-50; assay: Growth inhibition (growth curves) of wild type yeast SU-50; settings: for effect on growth of SU50: 25 mM sugar with 25 μM MB21, 100 cells per ml, vs reference and MB21 alone, effect if any, FIG. 5a
Description: (§1) For examples 2, and 4-9 grow-curves were recorded at 25° C. using a microbiology growth reader (Bioscreen C, ex Labsystems). For example 3, growth curve was determined as turbidity, measured by hand at a wave length of 660 nm (OD 660).
a) Saccharomyces cerevisiae strain SU-50 was cultivated in YEPD medium, supplemented with 2% glucose.
b) Growth curves were obtained with the strain SU-50. The cells (about 10 per ml) were cultured in YEPD at 25° C. in the presence or absence of β-gentiobiose or pustulan fragments and MB-21, by using a 24 well plate at room temperature with continuous shaking on a micro-titre plate shaker (mark 4) or a microbiology growth reader (Bioscreen C).
Three YEPD media were prepared, one without MB21, the other YEPD media contained 10 μM MB21 and 20 μM MB21, respectively. To these media β-gentiobiose was added in concentrations of 0, 50, 100 and 200 mM. The yeast strain SU50 was inoculated in these media in a concentration of 10 cells per ml, and cultivated in a 24 well plate at 25° C. Samples were taken from a 24 well plate at regular time intervals, diluted sixty times with distilled water and measured at 660 nm to construct the growth curves.
This example illustrates a relationship between the length of the β-(1,6)-glucan fragments and their effectiveness in competition.
(§2) In this example, three strains are grown in various media in the fashion of example 3, with the exception of being inoculated in the media in a concentration of 100 cells per ml. The sugars used are all comparatives: laminaribiose (β-1,3)-linked D-glucose), sucrose (having a 1,2 link), and sorbitol.
In this example, strain SU 50 was grown three media (see table 2) in the fashion of example 3, with the exception of being inoculated in the media in a concentration of 100 cells per ml.

[2] = system: Saccharomyces cerevisiae strain SU52-pUR5801; assay: Cell wall protein release test (α-galactosidase-CWP2p secretion into medium); settings: FIG. 1
Description: b) Saccharomyces cerevisiae strain SU52-pUR5801 was cultivated in Difco yeast nitrogen base (YNB), supplemented with 2% glucose and 0.004% histidine. After the culture had reached the late log-phase, the cells were cultivated further (a 10% inoculum) in YEPD medium, consisting of 1% Difco yeast extract, 2% Bacto-peptone, supplemented with 0.5% glucose and 5% galactose.
a) Saccharomyces cerevisiae strain SU52-pUR 5801 was grown in YNB and YEPD media, at 30° C. with shaking at 225 rpm in an orbital incubator until a OD (660 nm) between 5 and 6 was reached. In parallel experiments several concentrations of β-gentiobiose or pustulan fragments were included in the media. After cultivation, the media were separated from the cells by centrifugation (10.000×g for 15 min at 4° C.). The media were then filtered using […] filters. Secretion of α-(-galactosidase-CWP2p was assessed by measuring α-(-galactosidase enzyme activity in the media (see further on). […]
β-Gentiobiose was dissolved in YEPD media supplemented with 5% galactose, in concentrations of 10, 50 and 100 mM respectively. […] The enzyme activity of the fusion protein CWP2-α-galactosidase was measured as described in the α-galactosidase assay.

[3] = system: Zygosaccharomyces bailii ZB (NCYC 563); assay: Growth curves of strain ZB; settings: 200 mM sugar with 6 μM MB21, 100 cells per ml, vs reference and MB21 alone; effect if any; FIG. 5b
Description: as §1
c) Zygosaccharomyces bailii ZB: as SU-50 above.
as §2
In this example, strain ZB was grown three media (see table 3) in the fashion of example 3, with the exception of being inoculated in the media in a concentration of 100 cells per ml.

[4] = system: Zygosaccharomyces bailii G1; assay: Growth curves / relative inhibition of strain G1; settings: 200 mM sugar with 6 μM MB21, 100 cells per ml, vs reference and MB21 alone; effect if any; FIG. 5c
Description: as §1
d) Zygosaccharomyces bailii G1: as SU-50 above.
as §2
In this example, strain G1 was grown three media (see table 4) in the fashion of example 3, with the exception of being inoculated in the media in a concentration of 100 cells per ml.
In this example, strain G1 was grown in the fashion of example 3 (with the exception of being inoculated in the media in a concentration of 100 cells per ml) in the presence of 6 μM MB21 and 50 mM of a β-(1,6)-glucan. Experiments were done with short-chain β-(1,6)-glucan of variable chain length.

SMILES	influence on the growth of SU-50 ([1]; β-gentiobiose as such (0, 50, 100, 200 mM, no MB21), 10 cells per ml, 25° C., OD 660, FIG. 3)	relationship between concentration and secretion of the fusion construct ([2]; at least up to 100 mM β-gentiobiose)	secretion (release) of the fusion protein α-galactosidase-CW2p from the cell wall ([2]; β-gentiobiose 10, 50 and 100 mM in YEPD with 5% galactose, 30° C., 18 hours)	effect on growth of SU50 [1]	effect on growth of ZB [3]	effect on growth of G1 [4]
OC[C@H]1O[C@@H](OC[C@H]2O[C@@H](O)[C@H](O)[C@@H](O)[C@@H]2O)[C@H](O)[C@@H](O)[C@@H]1O [β-gentiobiose, 6-O-β-glucopyranosyl-β-D-glucose]	no influence	linear relationship	concentration dependent			
OC[C@H]1O[C@@H](O[C@H]2[C@H](O)[C@@H](CO)OC(O)[C@@H]2O)[C@H](O)[C@@H](O)[C@@H]1O (stereo partly shown) [laminaribiose]				stimulating effect		
OC[C@H]1O[C@@](CO)(O[C@H]2O[C@H](CO)[C@@H](O)[C@H](O)[C@H]2O)[C@@H](O)[C@@H]1O [sucrose]				stimulating effect	stimulating effect	stimulating effect
OC[C@@H](O)[C@@H](O)[C@H](O)[C@@H](O)CO [sorbitol]				stimulating effect	stimulating effect	stimulating effect
